Biological target: Thymidylate synthase (Homo sapiens, UniProt P04818)
Assay: Tritium Release Assay
Details: pH 7.5; 4 °C

Sequence of Thymidylate synthase (P04818 whole entry): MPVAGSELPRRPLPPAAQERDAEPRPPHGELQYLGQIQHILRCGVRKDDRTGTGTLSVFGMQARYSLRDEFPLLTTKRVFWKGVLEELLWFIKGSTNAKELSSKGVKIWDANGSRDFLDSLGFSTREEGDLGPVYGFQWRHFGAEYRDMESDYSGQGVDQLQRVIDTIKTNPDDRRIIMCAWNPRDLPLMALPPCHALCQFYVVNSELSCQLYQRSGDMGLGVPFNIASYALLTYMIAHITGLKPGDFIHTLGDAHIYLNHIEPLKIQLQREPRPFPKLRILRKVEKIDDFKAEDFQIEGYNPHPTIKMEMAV

`CCN1C(=O)c2cccc3c(NC(=O)c4cccs4)ccc1c23` [MV1554] was tested, and the IC50 was 160 µM.
With `Cc1c(C(=O)NCCc2cccs2)nnn1-c1ccccc1` [MV1555] the IC50 was 30 µM and the Kd was 5 µM.
In the case of `O=C(O)c1ccc(/N=C/c2ccc(-c3cccs3)s2)cc1` [MV1556], the IC50 is reported as 240 µM.
In the case of `CC(=NNC(=O)Cc1c(C)[nH]c2ccc(C)cc12)c1cccs1` [MV1561], the IC50 is reported as 160 µM.
For `CCc1ccc(/C=N/NC(=O)c2c[nH]c3ccccc23)s1` [MV1565], the IC50 was 70 µM and the Kd was 1 µM.
Work on `O=C(NCCc1c[nH]c2ccccc12)/C(=C\c1cccs1)NC(=O)c1cccs1` [MV1570] yielded an IC50 of 70 µM and a Kd of 2 µM.
`CC(OC(=O)c1cc2occc2n1C)C(=O)NCc1cccs1` (stereo not given) [MV1574] showed an IC50 greater than 500 µM.
Work on `CCOC(=O)c1cc2occc2n1CC(=O)N1CCc2ccccc21` [MV1576] yielded an IC50 of 140 µM.
In the case of `CCOC(=O)c1cc2oc(C)cc2n1CC#N` [MV1578], the IC50 is reported as greater than 500 µM.
Compound `Cc1onc(-c2ccccc2)c1C(=O)NCc1cccs1` [MV1581] has an IC50 greater than 500 µM.
Work on `O=C(NCc1cccs1)c1nc(-c2ccccc2)no1` [MV1586] yielded an IC50 of 115 µM.
`Cc1cc(C(=O)CSc2nnc(N)s2)c(C)n1Cc1ccco1` [MV1588] gave an IC50 of 115 µM.
